Where two headings read alike, the source gives them in different places.
Assays:
GSK 3α = GSK 3α (Homo sapiens (Human), UniProt P49840); test: GSK 3α enzyme inhibition (FRET, Z-LYTE, Method 2); format: biochemical; details: read-out: IC50 Values for Enzyme Inhibition, GSK3α
Experimental: The enzyme inhibitory activities of compounds disclosed herein are determined by FRET using synthetic peptides labelled with both donor and acceptor fluorophores (Z-LYTE, Invitrogen Ltd., Paisley, UK).
The following two assay variants can be used for determination of GSK 3α inhibition.
The inhibitory activities of compounds of the invention against the GSK 3α enzyme isoform (Invitrogen), are evaluated by determining the level of activation/phosphorylation of the target peptide. The GSK3-α protein (500 ng/mL, 2.5 μL) is mixed with the test compound (2.5 μL at either 4 μg/mL, 0.4 μg/mL, 0.04 μg/mL, or 0.004 μg/mL) for 2 hr at RT. The FRET peptide (8 μM, 2.5 μL), which is a phosphorylation target for GSK3α, and ATP (40 μM, 2.5 μL) are then added to the enzyme/compound mixture and the resulting mixture incubated for 1 hr. Development reagent (protease, 5 μL) is added for 1 hr prior to detection in a fluorescence microplate reader (Varioskan® Flash, ThermoFisher Scientific).
In all cases, the site-specific protease cleaves non-phosphorylated peptide only and eliminates the FRET signal. Phosphorylation levels of each reaction are calculated using the ratio of coumarin emission (donor) over fluorescein emission (acceptor), for which high ratios indicate high phosphorylation and low ratios indicate low phosphorylation levels. The percentage inhibition of each reaction is calculated relative to non-inhibited control and the 50% inhibitory concentration (IC50 value) is then calculated from the concentration-response curve.
This method follows the same steps as Method 1 above, but utilises a shorter period of mixing of the test compound (105 minutes instead of 2 hours) with the GSK3-α protein.

PBMCs = test: LPS-induced IL-8 release in PBMC cells (assay b); format: cell-based, human; details: LPS-stimulated PBMCs, read-out: IC50 Values for Inhibition of Cytokine Release, PBMCs IL-8
Experimental: Peripheral blood mononuclear cells (PBMCs) from healthy subjects are separated from whole blood using a density gradient (Lymphoprep, Axis-Shield Healthcare). The PBMCs are seeded in 96 well plates and treated with compounds at the desired concentration for 2 hours before addition of 1 ng/mL LPS (Escherichia Coli 0111:B4 from Sigma Aldrich) for 24 hours under normal tissue culture conditions (37° C., 5% CO2). The supernatant is harvested for determination of IL-8 and TNFα concentrations by sandwich ELISA (Duo-set, R&D systems) and read on the fluorescence microplate reader (Varioskan® Flash, ThermoFisher Scientific). The concentration at 50% inhibition (IC50) of IL-8 and TNFα production is calculated from the dose response curve.

Chain of GSK 3α (P49840 whole entry): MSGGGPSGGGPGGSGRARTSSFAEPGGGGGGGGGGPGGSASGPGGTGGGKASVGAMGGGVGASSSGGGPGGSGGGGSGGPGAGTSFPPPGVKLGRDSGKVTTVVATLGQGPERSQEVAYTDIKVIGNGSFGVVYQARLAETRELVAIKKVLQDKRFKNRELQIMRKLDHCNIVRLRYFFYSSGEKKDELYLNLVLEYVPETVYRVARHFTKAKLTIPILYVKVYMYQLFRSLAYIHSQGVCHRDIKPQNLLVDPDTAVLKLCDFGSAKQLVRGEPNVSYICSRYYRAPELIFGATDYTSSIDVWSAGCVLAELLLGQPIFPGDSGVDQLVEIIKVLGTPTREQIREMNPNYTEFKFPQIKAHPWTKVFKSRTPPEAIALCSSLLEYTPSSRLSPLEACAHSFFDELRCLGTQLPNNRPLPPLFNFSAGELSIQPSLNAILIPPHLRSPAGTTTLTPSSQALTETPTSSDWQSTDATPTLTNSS

SMILES | IC50 (GSK 3α) | IC50 (PBMCs; Homo sapiens, PBMC) | IC50 (PBMCs)
COc1c(NC(=O)Nc2ccc(Oc3ccnc(NCCN4CCOCC4)n3)c3ccccc23)cc(C(C)(C)C)cc1P(C)(C)=O [15(al), 1-(5-(tert-butyl)-3-(dimethylphosphoryl)-2-methoxyphenyl)-3-(4-((2-((2-morpholinoethyl)amino)pyrimidin-4-yl)oxy)naphthalen-1-yl)urea] | 339 nM | – | 3.7 nM
COc1c(NC(=O)Nc2ccc(Oc3ccnc(Nc4cc(C)cc(Cl)c4)c3)c3ccccc23)cc(C(C)(C)C)cc1P(C)(C)=O [15(am), 1-(5-(tert-butyl)-3-(dimethylphosphoryl)-2-methoxyphenyl)-3-(4-((2-((3-chloro-5-methylmethylphenyl)amino)pyridin-4-yl)oxy)naphthalen-1-yl)urea] | – | 6.1 nM | –
COc1cc(Nc2cc(Oc3ccc(NC(=O)Nc4cc(C(C)(C)C)cc(C(=O)NCCN5CCNCC5)c4OC)c4ccccc34)ccn2)cc(OC)c1 [79(h), 5-(tert-Butyl)-3-(3-(4-((2-((3,5-dimethoxyphenyl)amino)pyridin-4-yl)oxy)naphthalen-1-yl)ureido)-2-methoxy-N-(2-(piperazin-1-yl)ethyl)benzamide] | – | 16.4 nM | –
COc1cc(Nc2nccc(Oc3ccc(NC(=O)Nc4cc(C(C)(C)C)cc(S(C)(=O)=O)c4OC)c4ccccc34)n2)ccc1C(=O)O [79(i), 4-((4-((4-(3-(5-(tert-Butyl)-2-methoxy-3-(methylsulfonyl)phenyl)ureido)naphthalen-1-yl)oxy)pyrimidin-2-yl)amino)-2-methoxybenzoic acid] | – | 12.2 nM | –
COc1cc(Nc2nccc(Oc3ccc(NC(=O)Nc4cc(C(C)(C)C)cc([S+](C)[O-])c4OC)c4ccccc34)n2)ccc1C(=O)O (stereo not drawn) [79(j), 4-((4-((4-(3-(5-(tert-Butyl)-2-methoxy-3-(methylsulfinyl)phenyl)ureido)naphthalen-1-yl)oxy)pyrimidin-2-yl)amino)-2-methoxybenzoic acid] | – | 15.3 nM | –
COc1cc(Nc2cc(Oc3ccc(NC(=O)Nc4cc(C(C)(C)C)cc(P(C)(C)=O)c4OC)c4ccccc34)ccn2)cc(C(=O)N(C)CCN2CCN(C)CC2)c1 [79(k), 3-((4-((4-(3-(5-(tert-Butyl)-3-(dimethylphosphoryl)-2-methoxyphenyl)ureido)naphthalen-1-yl)oxy)pyridin-2-yl)amino)-5-methoxy-N-methyl-N-(2-(4-methylpiperazin-1-yl)ethyl)benzamide] | – | 7 nM | –
COc1cc(Nc2cc(Oc3ccc(NC(=O)Nc4cc(C(C)(C)C)cc(P(C)(C)=O)c4OC)c4ccccc34)ccn2)cc(C(=O)N(C)CCC2CCN(C)CC2)c1 [79(l), 3-((4-((4-(3-(5-(tert-Butyl)-3-(dimethylphosphoryl)-2-methoxyphenyl)ureido)naphthalen-1-yl)oxy)pyridin-2-yl)amino)-5-methoxy-N-methyl-N-(2-(1-methylpiperidin-4-yl)ethyl)benzamide] | – | 22.5 nM | –
COCCOCCOCCNC(=O)c1cc(Nc2nccc(Oc3ccc(NC(=O)Nc4cc(C(C)(C)C)cc(CNC(=O)CN(C)C)c4OC)c4ccccc34)n2)cc(OC)c1 [Example 81, 3-((4-((4-(3-(5-(tert-Butyl)-3-((2-(dimethylamino)acetamido)methyl)-2-methoxyphenyl)ureido)-naphthalen-1-yl)oxy)pyrimidin-2-yl)amino)-5-methoxy-N-(2-(2-(2-methoxyethoxy)ethoxy)-ethyl)benzamide] | – | 0.4 nM | –
COCCOCCOCCNC(=O)c1cc(Nc2cc(Oc3ccc(NC(=O)Nc4cc(C(C)(C)C)cc(CN5CCN(C)CC5)c4OC)c4ccccc34)ccn2)cc(OC)c1 [Example 82, 3-((4-((4-(3-(5-(tert-Butyl)-2-methoxy-3-((4-methylpiperazin-1-yl)methyl)phenyl)ureido)-naphthalen-1-yl)oxy)pyridin-2-yl)amino)-5-methoxy-N-(2-(2-(2-methoxyethoxy)ethoxy)ethyl)-benzamide] | – | 1.7 nM | –
COc1cc(Nc2nccc(Oc3ccc(NC(=O)Nc4cc(C(C)(C)C)cc([S+](C)[O-])c4OC)c4ccccc34)n2)cc(C(=O)NCCN2CCN(C)CC2)c1 (stereo not drawn) [Example 83, 3-((4-((4-(3-(5-(tert-Butyl)-2-methoxy-3-(methylsulfinyl)phenyl)ureido)naphthalen-1-yl)oxy)pyrimidin-2-yl)amino)-5-methoxy-N-(2-(4-methylpiperazin-1-yl)ethyl)benzamide] | – | 1.5 nM | –

Further lines, with some results ahead:

IC50 (GSK 3α) | SMILES | IC50 (PBMCs; Homo sapiens, PBMC) | IC50 (PBMCs)
> 11100 nM | COc1c(NC(=O)Nc2ccc(Oc3ccnc(Nc4ccccc4)c3)c3ccccc23)cc(C(C)(C)C)cc1[S+](C)[O-] (single isomer, unassigned) [38(b2), 1-(5-(tert-Butyl)-2-methoxy-3-(methylsulfinyl)phenyl)-3-(4-((2-(phenylamino)pyridin-4-yl)oxy)naphthalen-1-yl)urea] | 6 nM | –
97 nM | COc1c(NC(=O)Nc2ccc(Oc3ccnc(Nc4ccc5c(c4)C(=O)NC5)n3)c3ccccc23)cc(C(C)(C)C)cc1P(C)(C)=O [15(ab), 1-(5-(tert-butyl)-3-(dimethylphosphoryl)-2-methoxyphenyl)-3-(4-((2-((3-oxoisoindolin-5-yl)amino)pyrimidin-4-yl)oxy)naphthalen-1-yl)urea] | 5.5 nM | –
> 14700 nM | CCP(=O)(CC)c1cc(C(C)(C)C)cc(NC(=O)Nc2ccc(Oc3ccnc(Nc4ccccc4)c3)c3ccccc23)c1OC [15(ac), 1-(5-(tert-butyl)-3-(diethylphosphoryl)-2-methoxyphenyl)-3-(4-((2-(phenylamino)-pyridin-4-yl)oxy)naphthalen-1-yl)urea] | 9.1 nM | –
871 nM | COc1c(NC(=O)Nc2ccc(Oc3ccnc(Nc4cncc(N(C)C)n4)c3)c3ccccc23)cc(C(C)(C)C)cc1P(C)(C)=O [15(ae), 1-(5-(tert-butyl)-3-(dimethylphosphoryl)-2-methoxyphenyl)-3-(4-((2-((6-(dimethylamino)pyrazin-2-yl)amino)pyridin-4-yl)oxy)naphthalen-1-yl)urea] | 3.9 nM | –
5810 nM | COc1c(NC(=O)Nc2ccc(Oc3ccnc(Nc4ccccc4)c3)c3ccccc23)cc(C(C)(C)C)cc1C(=O)NCCN1CCCC1 [15(ag), 5-(tert-butyl)-2-methoxy-3-(3-(4-((2-(phenylamino)pyridin-4-yl)oxy)naphthalen-1-yl)ureido)-N-(2-(pyrrolidin-1-yl)ethyl)benzamide] | 9.8 nM | –
602 nM | COc1c(NC(=O)Nc2ccc(Oc3ccnc(NC4CCN(C)CC4)n3)c3ccccc23)cc(C(C)(C)C)cc1P(C)(C)=O [15(ah), 1-(5-(tert-butyl)-3-(dimethylphosphoryl)-2-methoxyphenyl)-3-(4-((2-((1-methylpiperidin-4-yl)amino)pyrimidin-4-yl)oxy)naphthalen-1-yl)urea] | 299 nM | –
127 nM | COc1c(NC(=O)Nc2ccc(Oc3ccnc(N[C@@H]4CCOC4)n3)c3ccccc23)cc(C(C)(C)C)cc1P(C)(C)=O [15(ai), (R)-1-(5-(tert-butyl)-3-(dimethylphosphoryl)-2-methoxyphenyl)-3-(4-((2-((tetrahydrofuran-3-yl)amino)pyrimidin-4-yl)oxy)naphthalen-1-yl)urea] | 3.7 nM | –
68 nM | COc1c(NC(=O)Nc2ccc(Oc3ccnc(N[C@H]4CCOC4)n3)c3ccccc23)cc(C(C)(C)C)cc1P(C)(C)=O [15(aj), (S)-1-(5-(tert-butyl)-3-(dimethylphosphoryl)-2-methoxyphenyl)-3-(4-((2-((tetrahydrofuran-3-yl)amino)pyrimidin-4-yl)oxy)naphthalen-1-yl)urea] | 1.8 nM | –
387 nM | COc1c(NC(=O)Nc2ccc(Oc3ccnc(NCCn4cccn4)n3)c3ccccc23)cc(C(C)(C)C)cc1P(C)(C)=O [15(ao), 1-(4-((2-((2-(1H-pyrazol-1-yl)ethyl)amino)pyrimidin-4-yl)oxy)naphthalen-1-yl)-3-(5-(tert-butyl)-3-(dimethylphosphoryl)-2-methoxyphenyl)urea] | 4.1 nM | –
> 16900 nM | Cc1c(NC(=O)Nc2ccc(Oc3ccnc(Nc4ccccc4)c3)c3ccccc23)cc(C(C)(C)C)cc1P(C)(C)=O [15(ap), 1-(5-(tert-butyl)-3-(dimethylphosphoryl)-2-methylphenyl)-3-(4-((2-(phenylamino)pyridin-4-yl)oxy)naphthalen-1-yl)urea] | 48.3 nM | –
356 nM | COc1c(NC(=O)Nc2ccc(Oc3ccnc(Nc4cnn(C)n4)c3)c3ccccc23)cc(C(C)(C)C)cc1P(C)(C)=O [15(ar), 1-(5-(tert-butyl)-3-(dimethylphosphoryl)-2-methoxyphenyl)-3-(4-((2-((2-methyl-2H-1,2,3-triazol-4-yl)amino)pyridin-4-yl)oxy)naphthalen-1-yl)urea] | 0.8 nM | –
